In patent US5994342A, “3-(substituted methyl)-4-oxa-1-azabicyclo[3.2.0]heptan-7-one derivatives useful as antitumor agents” (priority 1994, dated 1999):
Converted amounts (≈) assume the structure as drawn. Where two headings read alike, the source gives them in different places.

What was measured:
[1] = tested on: antifungal activity; conditions: reported by Brown and Evans; cited from earlier work
[2] = tested on: antitumor activity; test: Antitumor activity of clavam 1 in vivo
[3] = Chemical stability; assay type: physicochemical
[4] = tested on: antitumor activity; test: Antitumor activity of clavam 1 in vitro; assay type: cell-based
[5] = tested on: L-1210 (S) cells; test: In vitro L1210 cell cytotoxicity (microculture tetrazolium assay), sensitive line; assay type: cell-based; conditions: Mus musculus, L1210, 72 h, read-out: Cell Toxicity L-1210 (S) (TD50)
Protocol: (§1) In Vitro L1210 and P388 Cell Cytotoxicity Assay
(§2) Cells were counted using neubauer hemocytometer and seed in 96 well plates at 100 μl of 0.5×10^4 cells per ml. […] Control wells were identical except that the test compound was absent. These were cultured for three days. Results were assayed using the microculture tetrazolium assay briefly. 50 μl of MTT formazoan working solution (1:5 v/v in culture medium) was added to each well and cultures were incubated at 37° C. for 4 hrs. Culture plates were centrifuged at low speed for 5 minutes. All but 10-20 μl of culture medium supernatant was removed by slow aspiration and […] and read at OD540 on a multiscan spectrophotometer. Inhibition value of cell growth was calculated based on optical density using the following equation; [formula]
(§3) TD50 values were calculated from linear regression ines of the log-logit plot.

[6] = tested on: L-1210 (R) cells; test: In vitro L1210 cell cytotoxicity (microculture tetrazolium assay), resistant line; assay type: cell-based; conditions: Mus musculus, L1210, 72 h, read-out: Cell Toxicity L-1210 (R) (TD50)
Protocol: as §1, §2, §3

[7] = tested on: P388 (R) cells; test: In vitro P388 cell cytotoxicity (microculture tetrazolium assay), resistant line; assay type: cell-based; conditions: Mus musculus, read-out: Cell Toxicity P388 (R) (TD50)
Protocol: as §1, §2, §3

[8] = tested on: P388 (S) cells; test: In vitro P388 cell cytotoxicity (microculture tetrazolium assay), sensitive line; assay type: cell-based; conditions: Mus musculus, 72 h, read-out: Cell Toxicity P388 (S) (TD50)
Protocol: as §1, §2, §3

[9] = tested on: Sarcoma 180; test: In vivo antitumor activity against Sarcoma 180; parameters: species or system male ICR mice; conditions: i.p., days 1, 5 and 9
Protocol: In Vivo Antitumor Activity Against Sarcoma 180
The compounds of general formula (I) were tested in vivo against Sarcoma 180 xenografted tumor to mice as illustrated herein after.
Sarcoma 180, 5×10^6 cells were inoculated by S.C. to male ICR mice (6 week old) on day 0. Drugs were administered on days 1, 5 and 9. Mice were killed and tumor weight was measured on day 12 after transplantation. The percentage inhibition of tumor growth was calculated from the mean tumor weight of the treated group compared with that of the control group. Number of mice used in each group was between 6 to 7.

[10] = tested on: KB cells; test: In vitro KB cell cytotoxicity assay (crystal violet); assay type: cell-based; conditions: Homo sapiens, 72 h, 3 days culture, read-out: KB Cell Cytotoxicity TD50
Summary of the method: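 Cells seeded at 3×10^4 cells/ml in Eagle's MEM with 10% calf serum, cultured one day, then exposed to compound for three days at 37° C, 5% CO2. Glutaraldehyde-fixed cells stained with 0.05% crystal violet, eluted and read at OD540; TD50 from linear regression of log-logit plot of growth inhibition.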

[11] = L-1210 sensitive, 3 days culture
[12] = L-1210 resistant, 3 days culture
[13] = 72 h, P388 resistant, 3 days culture
[14] = Mus musculus, Sarcoma-180, ip, 288 h, 12.5 mg/kg/day, tumor s.c., tumor weight day 12, read-out: % Inhibition of tumor growth
[15] = Mus musculus, Sarcoma-180, ip, 288 h, 100 mg/kg/day, tumor s.c., tumor weight day 12, read-out: % Inhibition of tumor growth
[16] = Mus musculus, Sarcoma-180, ip, 288 h, 50 mg/kg/day, tumor s.c., tumor weight day 12, read-out: % Inhibition of tumor growth
[17] = Mus musculus, Sarcoma-180, ip, 288 h, 25 mg/kg/day, tumor s.c., tumor weight day 12, read-out: % Inhibition of tumor growth

For O=C1C[C@@H]2O[C@@H](CO)CN12 [clavam 1, (3R,5S)-3-hydroxymethyl-4-oxa-1-azabicyclo[3.2.0]heptan-7-one], the antifungal activity [1] is listed as “exhibit antifungal activity”, the “antitumor activity in vivo” value [2] is listed as “excellent antitumor activity” and the chemical stability [3] is listed as “chemically unstable”. For the same compound, the “antitumor activity in vitro” value [4] was “excellent antitumor activity”.
With COc1cccc2c1C(=O)c1c(O)c3c(c(O)c1C2=O)C[C@@](O)(C(=O)CO)C[C@@H]3O[C@H]1C[C@H](N)[C@H](O)[C@H](C)O1 [Adriamycin] the IC50 [5] was 0.004 µg/mL (≈ 0.00736 µM), the IC50 [6] was 0.36 µg/mL (≈ 0.662 µM) and the IC50 ([7]; P388, 72 h) was 0.575 µg/mL (≈ 1.06 µM). For the same compound, the IC50 [8] was 0.003 µg/mL (≈ 0.00552 µM).
For CC(=O)NC[C@@H]1CN2C(=O)C[C@H]2O1 (racemic) [Example 1, (3RS,5RS)-3-(N-Acetylaminomethyl)-4-oxa-1-azabicyclo[3.2.0]heptan-7-one], the IC50 [5, 11] was 0.103 µg/mL (≈ 0.559 µM), the IC50 [6, 12] was 0.104 µg/mL (≈ 0.565 µM) and the IC50 [7, 13] was 0.074 µg/mL (≈ 0.402 µM). For the same compound, the “Mortality in 12 days” value ([9]; 3.1 mg/kg/day) was 0/6, the “Mortality in 12 days” value ([9]; 6.25 mg/kg/day) was 0/6 and the “Mortality in 12 days” value ([9]; 12.5 mg/kg/day) was 0/6. The inhibition in vivo at 3.1 mg/kg ([9]; Mus musculus, Sarcoma-180, ip, 288 h, 3.1 mg/kg/day, tumor s.c., tumor weight day 12, read-out: % Inhibition of tumor growth) was 33.9%, the inhibition in vivo at 6.25 mg/kg ([9]; Mus musculus, Sarcoma-180, ip, 288 h, 6.25 mg/kg/day, tumor s.c., tumor weight day 12, read-out: % Inhibition of tumor growth) was 49.3% and the inhibition in vivo at 12.5 mg/kg [9, 14] was 71.4%. The IC50 ([8]; P388 sensitive, 3 days culture) was 0.103 µg/mL (≈ 0.559 µM) and the IC50 [10] was 0.263 µg/mL (≈ 1.43 µM).
CC(C)C(N)C(=O)NC(C(=O)O)C(O)C1CN2C(=O)CC2O1 (centres unmarked) [Example G0069A] showed an IC50 [5, 11] of 2.17 µg/mL (≈ 6.88 µM), an IC50 [6, 12] of 1.87 µg/mL (≈ 5.93 µM) and an IC50 [7, 13] of 0.751 µg/mL (≈ 2.38 µM). It also gave an IC50 ([8]; P388 sensitive, 3 days culture) of 1.02 µg/mL (≈ 3.23 µM).
In the case of CS(=O)(=O)NC[C@H]1CN2C(=O)C[C@H]2O1 (racemic) [Example 35, (3RS,5RS)-3-(N-Methanesulfonylaminomethyl)-4-oxa-1-azabicyclo[3.2.0]heptan-7-one], the “Mortality in 12 days” value ([9]; 100 mg/kg/day) is reported as 1/6, the inhibition in vivo at 100 mg/kg [9, 15] is reported as 64.6% and the IC50 [10] is reported as 0.198 µg/mL (≈ 0.899 µM).
With CC[C@]1(O)C[C@H]2CN(CCc3c([nH]c4ccccc34)[C@@](C(=O)OC)(c3cc4c(cc3OC)N(C=O)[C@H]3[C@@](O)(C(=O)OC)[C@H](OC(C)=O)[C@]5(CC)C=CCN6CC[C@]43[C@@H]65)C2)C1 [Vincristine] the IC50 [5] was 0.002 µg/mL (≈ 0.00242 µM), the IC50 [6] was 0.2 µg/mL (≈ 0.242 µM) and the IC50 ([7]; P388, 72 h) was 0.279 µg/mL (≈ 0.338 µM).
With O=C(NC[C@@H]1CN2C(=O)C[C@H]2O1)C1CCCCC1 (racemic) [Example 6, (3RS,5RS)-3-(N-Cyclohexylcarbonylaminomethyl)-4-oxa-1-azabicyclo[3.2.0]heptan-7-one] the “Mortality in 12 days” value ([9]; 20 mg/kg/day) was 0/6, the “Mortality in 12 days” value ([9]; 40 mg/kg/day) was 0/6 and the “Mortality in 12 days” value ([9]; 80 mg/kg/day) was 0/6. The inhibition in vivo at 20 mg/kg ([9]; Mus musculus, Sarcoma-180, ip, 288 h, 20 mg/kg/day, tumor s.c., tumor weight day 12, read-out: % Inhibition of tumor growth) was 32.1%, the inhibition in vivo at 40 mg/kg ([9]; Mus musculus, Sarcoma-180, ip, 288 h, 40 mg/kg/day, tumor s.c., tumor weight day 12, read-out: % Inhibition of tumor growth) was 35.7% and the inhibition in vivo at 80 mg/kg ([9]; Mus musculus, Sarcoma-180, ip, 288 h, 80 mg/kg/day, tumor s.c., tumor weight day 12, read-out: % Inhibition of tumor growth) was 43.3%. For the same compound, the IC50 [10] was 0.073 µg/mL (≈ 0.289 µM).
In the case of CC(C)[C@@H](N)C(=O)OC[C@H]1CN2C(=O)C[C@@H]2O1.Cl (mixture of isomers) [Example 60B, (3RS,5SR)-3-(D-2-Amino-3-methylbutyryl)oxymethyl-4-oxa-1-azabicyclo[3.2.0]heptan-7-one hydrochloride], the “Mortality in 12 days” value ([9]; 50 mg/kg/day) is reported as 0/6, the “Mortality in 12 days” value ([9]; 100 mg/kg/day) is reported as 0/6 and the inhibition in vivo at 50 mg/kg [9, 16] is reported as 49.8%. It also gave an inhibition in vivo at 100 mg/kg [9, 15] of 77.7% and an IC50 [10] of 0.903 µg/mL.
With N[C@@H](CC(=O)O)C(=O)NCC(=O)NCC1CN2C(=O)CC2O1 (stereo partly drawn) [Example 46B, (3RS,5RS)-3-N-[N-(L-2-Amino-3-carboxypropanoyl)aminoacetyl]aminomethyl-4-oxa-1-azabicyclo[3.2.0]heptan-7-one] the “Mortality in 12 days” value ([9]; 12.5 mg/kg/day) was 0/6, the “Mortality in 12 days” value ([9]; 25 mg/kg/day) was 0/6 and the “Mortality in 12 days” value ([9]; 50 mg/kg/day) was 1/6. It also gave an inhibition in vivo at 12.5 mg/kg [9, 14] of 44.7%, an inhibition in vivo at 25 mg/kg [9, 17] of 55.7% and an inhibition in vivo at 50 mg/kg [9, 16] of 76.9%. It also gave an IC50 [10] of 2.63 µg/mL (≈ 8.37 µM).
With O=C(NCCCC[C@H](NC(=O)OCc1ccccc1)C(=O)OCC1CN2C(=O)CC2O1)OCc1ccccc1 (stereo partly drawn) [Example 77A, (3RS,5SR)-3-(L-2,6-N-Dibenzyloxycarbonylaminohexanoyl)oxymethyl-4-oxa-1-azabicyclo[3.2.0]heptan-7-one] the “Mortality in 12 days” value ([9]; 50 mg/kg/day) was 0/6, the “Mortality in 12 days” value ([9]; 100 mg/kg/day) was 2/6 and the inhibition in vivo at 50 mg/kg [9, 16] was 39.1%. It also gave an inhibition in vivo at 100 mg/kg [9, 15] of 67.3% and an IC50 [10] of 1.18 µg/mL (≈ 2.19 µM).
For N[C@H](CCC(=O)NCC1CN2C(=O)CC2O1)C(=O)O (stereo partly drawn) [Example 69B, (3RS,5RS)-3-N-(D-4-Amino-4-carboxybutyryl)aminomethyl-4-oxa-1-azabicyclo[3.2.0]heptan-7-one], the “Mortality in 12 days” value ([9]; 100 mg/kg/day) was 0/6, the inhibition in vivo at 100 mg/kg [9, 15] was 37.8% and the IC50 [10] was 2.47 µg/mL (≈ 9.11 µM).
For C[C@H](N)C(=O)OC[C@H]1CN2C(=O)C[C@@H]2O1.Cl (mixture of isomers) [Example 48B, (3RS,5SR)-3-(L-2-Aminopropanoyl)oxymethyl-4-oxa-1-azabicyclo[3.2.0]heptan-7-one hydrochloride], the “Mortality in 12 days” value ([9]; 12.5 mg/kg/day) was 0/6, the “Mortality in 12 days” value ([9]; 25 mg/kg/day) was 0/6 and the “Mortality in 12 days” value ([9]; 50 mg/kg/day) was 2/6. It also gave an inhibition in vivo at 12.5 mg/kg [9, 14] of 44.9%, an inhibition in vivo at 25 mg/kg [9, 17] of 66.8% and an inhibition in vivo at 50 mg/kg [9, 16] of 77.3%. For the same compound, the IC50 [10] was 0.878 µg/mL.
In the case of CCCCCC(=O)NC[C@@H]1CN2C(=O)C[C@H]2O1 (racemic) [Example 4, (3RS,5RS)-3-(N-Hexanoylaminomethyl)-4-oxa-1-azabicyclo[3.2.0]heptan-7-one], the “Mortality in 12 days” value ([9]; 100 mg/kg/day) is reported as 0/6, the inhibition in vivo at 100 mg/kg [9, 15] is reported as 49.4% and the IC50 [10] is reported as 0.312 µg/mL (≈ 1.3 µM).
With N[C@@H](CC(=O)O)C(=O)NCC1CN2C(=O)CC2O1 (stereo partly drawn) [Example 67B, (3RS,5RS)-3-N-(L-2-Amino-3-carboxypropanoyl)aminomethyl-4-oxa-1-azabicyclo[3.2.0]heptan-7-one] the “Mortality in 12 days” value ([9]; 50 mg/kg/day) was 0/6, the “Mortality in 12 days” value ([9]; 100 mg/kg/day) was 0/6 and the inhibition in vivo at 50 mg/kg [9, 16] was 41.1%. For the same compound, the inhibition in vivo at 100 mg/kg [9, 15] was 65.9% and the IC50 [10] was 6.04 µg/mL (≈ 23.5 µM).
